From patent publication US9133224B2, “Macrocyclic kinase inhibitors” (OSI Pharmaceuticals, LLC, priority 2010, dated 2015)
Where two headings read alike, the source gives them in different places.

Legend:
[1] = target: T1, GST-tagged full-length FAK enzyme (PTK2) (Homo sapiens, UniProt Q05397); assay: Biochemical Omnia Assay (FAK)
T1 construct: GST-tagged full-length FAK enzyme (PTK2, Invitrogen PV4085); GST; purchased Invitrogen PV4085
Procedure: Biochemical Omnia Assay Protocol
The Omnia Assay (Invitrogen) has been optimized for GST-tagged full-length FAK enzyme (PTK2, Invitrogen PV4085).
All compound concentrations were assayed in duplicate. Initial compound dilutions were prepared at 100× concentration in 100% DMSO from a 10 mM stock solution. Compounds were further diluted 1:25 in assay buffer resulting in a 4× concentrated solution.
In running the assay, 5 μL of the above 4× concentrated compound solution (or 4% DMSO for positive controls) was added to the assay plate followed by 5 μL of a solution containing peptide (40 μM) and ATP (200 μM) in assay buffer. The reaction was initiated by the addition of 10 μL of FAK (50 nM) in assay buffer, or assay buffer alone for negative controls. The increase in fluorescence due to peptide phosphorylation was monitored continuously as a function of time using a Spectramax M5 plate reader (Molecular Devices) equipped with SoftMax Pro 5.2 software.
IC50 values were determined from the slopes of the linear progress curves by non-linear curve-fitting using GraphPad Prism 5 (GraphPad Software, Inc.).

FAK = target: T2, FAK (Homo sapiens, UniProt Q05397); assay: Cell-based capture ELISA for inhibition of FAK autophosphorylation [pY397] in U87MG cells
T2 construct: endogenous in cells; host or cells: U87MG glioblastoma cells (ATCC HTB-14)
Procedure: Cell-Based Assays for Inhibition of FAK Autophosphorylation: MiaPaCa2 and U87MG
The ability of compounds to inhibit FAK autophosphorylation was determined in a cell-based capture ELISA assay using U87MG glioblastoma cells (ATCC, Cat # HTB-14) and the FAK [pY397]ELISA kit from Invitrogen (KHO0441). The assay determines the ability of compounds to block endogenous autophosphorylation of FAK stimulated by fibronectin. Cells plated on fibronectin coated 96-well plate were incubated with compounds at various concentrations in the complete growth medium for 2 h. Cell lysates were then prepared and FAK protein was captured onto a FAK antibody-coated 96-well ELISA plate. The phosphotyrosine content of FAK protein was then monitored by quantitation of degree of binding of an antibody that recognizes only the phosphorylated FAK at Y397 within the captured protein.
Reagents Provided in Biosource FAK [pY397]
Cultures of U87MG cells growing in MEM (Earles) containing non-essential amino acids, sodium pyruvate (1 mM), […] (1%) and 10% fetal bovine serum were detached by trypsin-EDTA and suspended in cell growth medium. Cells were then plated onto fibronectin (600 ng/well)-coated 96-well flat bottom plates at 1.7×10^4 cells per well in 60 uL cell growth medium and incubated overnight at 37° C. in a CO2 incubator.
Compound dilutions were prepared from 10 mM DMSO stocks by dilution in cell growth medium, the final concentration of DMSO in the assay being 0.6%. […] The cells were then incubated with compounds at 37° C. for 2 h. The medium was removed by aspiration and cells were lysed by addition of 20 uL of ice-cold cell lysis buffer per well. The plates were kept on ice for 20 min and 50 uL of standard diluent was added to each well. 50 uL of cell lysate from each well was transferred to respective wells in an assay plate and 50 uL of detection antibody was added to all wells except H1-H6 which were no antibody control wells. Capture assay plates were incubated overnight in a cold room.
Following incubation of the cell lysates and detection antibodies in the ELISA plate, the wells were washed 4 times with 120 uL of wash buffer (1×), then 100 uL of diluted HRP conjugated antibody (1:100 dil in diluent) was added to each well, and the plate was incubated at RT for 30 min. The wells were then washed for 4 times with 120 uL of wash buffer (1×) and 100 uL of chromogen was added to each well and incubated in the dark at RT for 5-10 min. 100 uL of stop solution was added to each well and the absorbance measured at 450 nm, 0.1 s.
Comparison of the assay signals obtained in the presence of compound with those of positive and negative controls (cells with no compound and no detection antibody being added), allows degree of inhibition of phospho-FAK [Y397] to be determined over a range of compound concentrations. […] The assay as described above was modified to determine the effect of inclusion of 50% (v/v) mouse or human plasma. In this assay, the compound plate was prepared as 2× concentration in 100 uL of 100% mouse or human plasma, and 60 uL of this was added to 60 uL of culture medium and incubated at 37° C. incubator for 2 h. The rest of the assay was carried out as described above.

[2] = mean IC50, [ATP] = 50uM, read-out: FAK Activity Biochemical OMNIA, [ATP] = 50uM
[3] = 50% (v/v) human plasma, mean IC50, read-out: FAK Activity Mechanistic (U87MG) HP
[4] = 50% (v/v) mouse plasma, mean IC50, read-out: FAK Activity Mechanistic (U87MG) MP
[5] = no plasma present, mean IC50, read-out: FAK Activity Mechanistic (U87MG) NP

T1 sequence (Q05397 whole entry): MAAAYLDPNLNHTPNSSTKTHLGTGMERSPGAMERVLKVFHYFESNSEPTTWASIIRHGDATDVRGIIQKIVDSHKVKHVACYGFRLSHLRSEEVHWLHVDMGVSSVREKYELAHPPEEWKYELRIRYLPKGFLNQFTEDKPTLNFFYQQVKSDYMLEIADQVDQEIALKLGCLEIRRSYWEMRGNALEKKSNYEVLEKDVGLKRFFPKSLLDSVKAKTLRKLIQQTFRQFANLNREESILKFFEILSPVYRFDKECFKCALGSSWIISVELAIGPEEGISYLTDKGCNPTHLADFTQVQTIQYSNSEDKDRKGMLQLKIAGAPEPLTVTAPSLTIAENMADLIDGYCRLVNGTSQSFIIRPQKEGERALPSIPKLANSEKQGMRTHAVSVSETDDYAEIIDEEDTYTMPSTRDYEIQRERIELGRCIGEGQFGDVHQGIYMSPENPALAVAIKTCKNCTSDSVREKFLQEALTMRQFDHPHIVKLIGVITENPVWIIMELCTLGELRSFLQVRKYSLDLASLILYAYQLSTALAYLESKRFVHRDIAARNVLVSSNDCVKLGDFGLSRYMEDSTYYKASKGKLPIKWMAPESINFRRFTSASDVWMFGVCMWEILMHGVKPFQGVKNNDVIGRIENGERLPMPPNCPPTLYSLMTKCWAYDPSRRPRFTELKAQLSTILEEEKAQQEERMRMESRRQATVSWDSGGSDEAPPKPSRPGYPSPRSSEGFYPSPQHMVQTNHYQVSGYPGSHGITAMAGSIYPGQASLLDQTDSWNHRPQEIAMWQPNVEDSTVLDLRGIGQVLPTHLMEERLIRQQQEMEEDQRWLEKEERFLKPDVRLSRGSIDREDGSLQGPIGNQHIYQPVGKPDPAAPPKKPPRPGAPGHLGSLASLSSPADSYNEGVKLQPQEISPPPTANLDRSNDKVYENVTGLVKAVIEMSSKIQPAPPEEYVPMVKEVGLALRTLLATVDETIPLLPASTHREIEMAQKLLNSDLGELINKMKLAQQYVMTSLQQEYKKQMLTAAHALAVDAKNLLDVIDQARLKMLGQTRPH
T2 sequence (Q05397 whole entry): as above

| Structure (SMILES) | IC50 [1, 2] [nM] | IC50 (FAK; [3]) [nM] | IC50 (FAK; [4]) [nM] | IC50 (FAK; [5]) [nM] | IC50 [1] [nM] | IC50 (FAK; FAK Activity Mechanistic (U87MG) MP, 50% (v/v) mouse plasma, mean IC50) [nM] |
| --- | --- | --- | --- | --- | --- | --- |
| CCP1(=O)Cc2ccc(c(OC)c2)Nc2ncc(C(F)(F)F)c(n2)Nc2ccc(nc2C(=O)NC)-c2cnn(c2)CCCO1 (single isomer, unassigned) [Example 67A] | < 400 | 400 to 4000 | 400 to 4000 | < 400 |  |  |
| CCOP1(=O)Cc2ccc(c(F)c2)Nc2ncc(C(F)(F)F)c(n2)Nc2ccc(nc2C(=O)NC)-c2cnn(c2)CCCCO1 (racemic) [Example 23] | < 400 | < 400 |  | < 400 |  |  |
| CCOP1(=O)Cc2ccc(c(Br)c2)Nc2ncc(C(F)(F)F)c(n2)Nc2ccc(nc2C(=O)NC)-c2cnn(c2)CCCO1 (racemic) [Example 32] | < 400 | < 400 |  | < 400 |  |  |
| CCOP1(=O)Cc2ccc(c(OC)c2)Nc2ncc(C(F)(F)F)c(n2)Nc2ccc(cc2C(=O)NC)-c2cnn(c2)CCCO1 (racemic) [Example 4] |  | < 400 |  | < 400 | < 400 |  |
| CCOP1(=O)Cc2ccc(c(OC)c2)Nc2ncc(C(F)(F)F)c(n2)Nc2ccc(nc2C(=O)NC)-c2cnn(c2C)CCCO1 (single isomer, unassigned) [Example 35A] | < 400 | 400 to 4000 |  | < 400 |  |  |
| CCOP1(=O)Cc2ccc(c(OC)c2)Nc2ncc(C(F)(F)F)c(n2)Nc2ccc(nc2C(=O)NC)-c2cn(nc2Cl)CCCO1 (single isomer, unassigned) [Example 49A] | < 400 | > 4000 | 400 to 4000 | < 400 |  |  |
| CNC(=O)c1nc2ccc1Nc1nc(ncc1C(F)(F)F)Nc1ccc(cc1OC)CP(=O)(C(C)C)OCCCn1cc-2cn1 (single isomer, unassigned) [Example 68A] | < 400 | 400 to 4000 | 400 to 4000 | < 400 |  |  |
| CCOP1(=O)Cc2ccc(c(OC)c2)Nc2ncc(C(F)(F)F)c(n2)Nc2cc(F)c(c3c2C(=O)N(C)C3)-c2cnn(c2)CCCO1 (racemic) [Example 31] |  |  |  | < 400 | < 400 |  |
| CCOP1(=O)Cc2ccc(c(OC)c2)Nc2ncc(C(F)(F)F)c(n2)Nc2ccc(nc2C(=O)NC)-c2cnn(c2)C(C)(C)CCO1 (racemic) [Example 50] | < 400 | < 400 |  | < 400 |  |  |
| CCOP1(=O)Cc2ccc(c(OC)c2)Nc2ncc(C(F)(F)F)c(n2)Nc2ccc(c3c2C(=O)N(C)C3)-c2cnn(c2)CCCCO1 (racemic) [Example 17] | < 400 | < 400 |  | < 400 |  |  |
| CCCP1(=O)Cc2ccc(c(OC)c2)Nc2ncc(C(F)(F)F)c(n2)Nc2ccc(nc2C(=O)NC)-c2cnn(c2)CCCO1 (single isomer, unassigned) [Example 37A] | < 400 | 400 to 4000 | 400 to 4000 | < 400 |  |  |
| CCOP1(=O)Cc2ccc(c(OC)c2)Nc2ncc(C(F)(F)F)c(n2)Nc2ccc(nc2C(=O)NC)-c2cn(nc2OC)CCCO1 (racemic) [Example 48] |  | < 400 | 400 to 4000 | < 400 | < 400 |  |
| CCOP1(=O)Cc2ccc(c(OC)c2)Nc2ncc(C(F)(F)F)c(n2)Nc2ccc(c(Cl)c2C(=O)NC)-c2cnn(c2)CCCO1 (racemic) [Example 28] |  |  | > 4000 | 400 to 4000 | < 400 |  |
| CCOP1(=O)Cc2ccc(c(Cl)c2)Nc2ncc(C(F)(F)F)c(n2)Nc2ccc(nc2C(=O)NC)-c2cnn(c2)CC2(COC2)CO1 (racemic) [Example 58] |  | < 400 |  | < 400 | < 400 |  |
| CCOP1(=O)Cc2ccc(c(OC)c2)Nc2ncc(C(F)(F)F)c(n2)Nc2ccc(c3c2C(=O)N(C)C3)-c2cnn(c2)C[C@H](O)CO1 (mixture of isomers) [Example 5] |  | < 400 |  | < 400 | < 400 |  |
| CNC(=O)c1nc2ccc1Nc1nc(ncc1C(F)(F)F)Nc1ccc(cc1OC)CP(=O)(O)OCCCn1cc-2cn1 [Example 65, 10-hydroxy-14-methoxy-N-methyl-20-(trifluoromethyl)-9-oxa-4,5,16,18,22,25,28-heptaaza-10-phosphapentacyclo[21.2.2.2^12,15.1^2,5.1^17,21]hentriaconta-1(25),2(31),3,12,14,17(28),18,20,23,26,29-undecaene-24-carboxamide 10-oxide] | < 400 | > 4000 | > 4000 | > 4000 |  |  |
| CCOP1(=O)Cc2ccc(c(OC)c2Cl)Nc2ncc(C(F)(F)F)c(n2)Nc2ccc(nc2C(=O)NC)-c2cnn(c2)CC2(COC2)CO1 (racemic) [Example 55] |  | < 400 | 400 to 4000 | < 400 | < 400 |  |
| CCOP1(=O)Cc2ccc(c(OC)c2)Nc2ncc(C(F)(F)F)c(n2)Nc2ccc(c3c2C(=O)N(C)C3)-c2cnn(c2)CCCO1 (racemic) [Example 1] |  | < 400 |  | < 400 | < 400 |  |
| CCOP1(=O)Cc2ccc(c(OC)c2)Nc2ncc(C(F)(F)F)c(n2)Nc2ccc(nc2C(=O)NC)-c2cnn(c2)CCCCO1 (racemic) [Example 15] |  | < 400 |  | < 400 | < 400 |  |
| CCOP1(=O)Cc2ccc(cc2)Nc2ncc(C(F)(F)F)c(n2)Nc2ccc(cc2C(=O)N(C)C)-c2cnn(c2)CCCO1 (racemic) [Example 11] |  | 400 to 4000 |  | < 400 | < 400 |  |
| CCOP1(=O)Cc2ccc(c(OC)c2)Nc2ncc(C(F)(F)F)c(n2)Nc2ccc(c(OC)c2C(=O)NC)-c2cnn(c2)CCCO1 (racemic) [Example 30] |  |  | 400 to 4000 | < 400 | < 400 |  |
| CCOP1(=O)Cc2ccc(c(OC)c2)Nc2ncc(C(F)(F)F)c(n2)Nc2ccc(nc2C(=O)NC)-c2cc(C(=O)NC)n(c2)CCCO1 (racemic) [Example 42] |  | < 400 |  | < 400 | < 400 | 400 to 4000 |
| CCOP1(=O)Cc2ccc(c(OC)c2)Nc2ncc(C(F)(F)F)c(n2)Nc2ccc(nc2C(=O)NC)-c2cn(nc2C#N)CCCO1 (racemic) [Example 52] |  |  |  | < 400 | < 400 |  |
| CCOP1(=O)Cc2ccc(c(OC)c2)Nc2ncc(C(F)(F)F)c(n2)Nc2ccc(nc2C(=O)NC)-c2cc(C(=O)N(C)C)n(c2)CCCO1 (racemic) [Example 41] |  | < 400 |  | < 400 | < 400 |  |
| CCOP1(=O)Cc2ccc(c(OC)c2)Nc2ncc(C(F)(F)F)c(n2)Nc2ccc(nc2C(=O)NC)-c2cnn(c2)CC(C)(C)CO1 (racemic) [Example 47] |  | < 400 |  | < 400 | < 400 |  |
| CCOP1(=O)Cc2ccc(c(OC)c2)Nc2ncc(C(F)(F)F)c(n2)Nc2ccc(nc2C(=O)NC)-c2cnn(c2)CC(C)CO1 (mixture of isomers) [Example 19] | < 400 | < 400 |  | < 400 |  |  |
| CCOP1(=O)Cc2ccc(c(OC)c2)Nc2ncc(C(F)(F)F)c(n2)Nc2ccc(cc2C(=O)NOC)-c2cnn(c2)CCCO1 (racemic) [Example 26] | < 400 | < 400 | 400 to 4000 | < 400 |  |  |
